For orientation: Ki means the equilibrium dissociation constant of an inhibitor or competing ligand from its target. Broadly, the IC50 is the point on the concentration scale where inhibition reaches its midpoint. As a reminder, the Kd is the concentration at which binding is half-saturated.

Where a chain is given by its changes, count along the chain named. “Also recorded” adds a separate entry of the source. Read-outs that look alike come from different tables or passages of the source.

One test deals with T1, SlitOBP1 (Spodoptera litura, UniProt A1Z1R1).
T1 sequence (A1Z1R1 20-164): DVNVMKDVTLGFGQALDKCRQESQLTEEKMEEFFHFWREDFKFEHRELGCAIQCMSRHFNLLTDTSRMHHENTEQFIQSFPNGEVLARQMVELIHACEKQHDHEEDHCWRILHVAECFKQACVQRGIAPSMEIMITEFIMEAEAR
The experiment in a line: Fluorescence competitive binding assay with 1-NPN, recombinant SlitOBP1. Conditions: for binding to SlitOBP1 in the competitive fluorescence binding assay, in words: wild-type SlitOBP1, displacement of 1-NPN.

The target in test [1] is T2, SlitOBP1 Phe12 (phenylalanine to alanine) (Spodoptera litura, UniProt A1Z1R1, F31A).
T2 sequence (A1Z1R1 20-164 F31A): T1 sequence (A1Z1R1 20-164) with F12A
As to the kind of experiment: Fluorescence binding assay with 1-NPN, mutant SlitOBP1 Phe12.

The target in test [2] is T3, SlitOBP1 Ile52 (isoleucine to alanine) (Spodoptera litura, UniProt A1Z1R1, I71A).
T3 sequence (A1Z1R1 20-164 I71A): T1 sequence (A1Z1R1 20-164) with I52A
The experiment in a line: Fluorescence binding assay with 1-NPN, mutant SlitOBP1 Ile52.

In test [3] the target is T4, SlitOBP1 Thr9 (threonine to alanine) (Spodoptera litura, UniProt A1Z1R1, T28A).
T4 sequence (A1Z1R1 20-164 T28A): T1 sequence (A1Z1R1 20-164) with T9A
As to the kind of experiment: Fluorescence binding assay with 1-NPN, mutant SlitOBP1 Thr9.

Test [4] deals with T5, SlitOBP1 Glu98 (glutamic to alanine) (Spodoptera litura, UniProt A1Z1R1, E117A).
T5 sequence (A1Z1R1 20-164 E117A): T1 sequence (A1Z1R1 20-164) with E98A
As to the kind of experiment: Fluorescence binding assay with 1-NPN, mutant SlitOBP1 Glu98.

The target in test [5] is T6, SlitOBP1 Trp37 (tryptophan to alanine) (Spodoptera litura, UniProt A1Z1R1, W56A).
T6 sequence (A1Z1R1 20-164 W56A): T1 sequence (A1Z1R1 20-164) with W37A
As to the kind of experiment: Fluorescence binding assay with 1-NPN, mutant SlitOBP1 Trp37.

The mark [6] stands for this setting: 2 μM SlitOBP1, 2 μM 1-NPN, ligand 0-20 μM, unit inferred.

Consider `O=C(O)C(F)(F)C(F)(F)C(F)(F)C(F)(F)C(F)(F)C(F)(F)C(F)(F)C(F)(F)F` [375-95-1, Perfluorononanoic acid], for which, at SlitOBP1, the inhibitory constant (Ki) amounted to 3.76 µM and the “binding to SlitOBP1 in the competitive fluorescence binding assay, in words” value (shortened to “binding to SlitOBP1”) was “high affinities; also recorded: could effectively displace 1-NPN”. The IC50 on SlitOBP1 (setting [6]) is 6.08 µM.
With `OCC(F)(F)C(F)(F)C(F)(F)C(F)(F)C(F)(F)C(F)(F)C(F)(F)CO` [203303-01-9, 1H,1H,9H,9H-perfluoro-1,9-nonanediol], the Ki at SlitOBP1 came to 5.84 µM. Besides, on SlitOBP1 (setting [6]), the IC50 turned out to be 9.45 µM.
`c1ccc(Nc2cccc3ccccc23)cc1` [1-NPN, N-phenyl-1-naphthylamine, reference compound]: the dissociation constant (Kd) at SlitOBP1 came to 3.24 ± 0.2 µM; in test [1], 6.78 ± 0.25 µM; in test [2] it was 5.43 ± 0.31 µM; in test [3], 4.21 ± 0.19 µM; in test [4] it was 3.67 ± 0.25 µM; in test [5] it was 4.54 ± 0.28 µM.
For `C[C@]12C=CC(=O)C=C1CC[C@@H]1[C@@H]2[C@@H](O)C[C@@]2(C)[C@H]1CC[C@]2(O)C(=O)CO` [50-24-8, 11β,17α,21-trihydroxypregna-1,4-diene-3,20-dione, reference compound], at SlitOBP1, the Ki turned out to be 3.1 µM and the “binding to SlitOBP1” value is on record as “high affinities; also recorded: could effectively displace 1-NPN”. The IC50 at SlitOBP1 (setting [6]) came out at 5.02 µM.
Take `CC(C)(C)OC(=O)C[C@H](NC(=O)OCc1ccccc1)C(=O)O` [5545-52-8, N-Cbz-L-Aspartic acid 4-tert-butyl ester]: on SlitOBP1, the IC50 stood at 6.7 µM and the inhibition constant (Ki) was found to be 4.14 µM.
In the case of `CC(=O)[C@H]1CC[C@H]2[C@@H]3CC=C4C[C@@H](O)CC[C@]4(C)[C@H]3CC[C@]12C` [145-13-1, Delta-5-pregnenolone], the Ki at SlitOBP1 came out at 9.13 µM. Moreover, the IC50 at SlitOBP1 (setting [6]) amounted to 14.8 µM.
The like results for `OCC(F)(F)C(F)(F)C(F)(F)C(F)(F)C(F)(F)C(F)(F)C(F)(F)C(F)(F)CO` [754-96-1, 1H,1H,10H,10H-perfluoro-1,10-decanediol] were, in that order, 4.13 µM and 6.68 µM.
As for `C[C@]12C=CC(=O)C=C1CC[C@@H]1[C@@H]2C(=O)C[C@@]2(C)[C@H]1CC[C@]2(O)C(=O)CO` [53-03-2, 1,2-Dehydrocortisone, reference compound], at SlitOBP1, the Ki was 3.09 µM and the “binding to SlitOBP1” value is reported as “high affinities; also recorded: could effectively displace 1-NPN”. In addition, at SlitOBP1 (setting [6]), the concentration for half-maximal inhibition (IC50) was 5 µM.
Take `NCC(=O)NC(Cc1ccc(O)cc1)C(=O)NCC(=O)O` (stereo not drawn) [6099-08-7, H-Gly-Tyr-Gly-OH]: the Ki on SlitOBP1 stood at 3.78 µM. On SlitOBP1 (setting [6]), the IC50 turned out to be 6.11 µM. Also, the “binding to the mutant compared with the wild type, in words” value in test [3] (mutant Thr9) and in test [4] (mutant Glu98) was “better binding activities” in each case.
Regarding `NC(=O)[C@@H]1CCCN1C(=O)[C@H](Cc1cnc[nH]1)NC(=O)[C@@H]1CCC(=O)N1` [24305-27-9, Pyr-His-Pro-NH2], the inhibition constant Ki at SlitOBP1 is 4.44 µM. Besides, the IC50 on SlitOBP1 (setting [6]) came to 7.18 µM.
On to `OCCC(F)(F)C(F)(F)C(F)(F)C(F)(F)C(F)(F)C(F)(F)C(F)(F)C(F)(F)F` [678-39-7, 1H,1H,2H,2H-perfluoro-1-decanol], for which the inhibition constant Ki at SlitOBP1 turned out to be 3.69 µM. Besides, on SlitOBP1 (setting [6]), the IC50 turned out to be 5.97 µM. The “binding to the mutant compared with the wild type, in words” value in test [5] (mutant Trp37) is listed as “better binding activities”.
In the case of `CC[C@H](C)[C@H](NC(=O)[C@@H](N)CCCCN)C(=O)O` [20556-13-2, H-Lys-Ile-OH], the Ki at SlitOBP1 was determined as 4.65 µM. On SlitOBP1 (setting [6]), the concentration for half-maximal inhibition (IC50) came to 7.52 µM.
As to `N#CC(F)(F)C(F)(F)C(F)(F)C(F)(F)C(F)(F)C(F)(F)C(F)(F)C(F)(F)C#N` [2342-09-8, Perfluorosebaconitrile], the “binding to SlitOBP1” value on SlitOBP1 is listed as “no binding potential”.
On the same count and under the same terms, then `NCCC(F)(F)C(F)(F)C(F)(F)C(F)(F)C(F)(F)C(F)(F)C(F)(F)C(F)(F)F` [30670-30-5, 1H,1H,2H,2H-perfluorodecylamine], with “no binding potential”.
As to `CC(=O)[C@@]12O[C@@H]1C[C@H]1[C@@H]3CC=C4C[C@@H](O)CC[C@]4(C)[C@H]3CC[C@@]12C` [974-23-2, 16,17-epoxypregnenolone], at SlitOBP1, the inhibition constant Ki was 5.12 µM. Moreover, on SlitOBP1 (setting [6]), the half-maximal inhibitory concentration (IC50) stood at 8.28 µM.
`N[C@@H](Cc1ccc(O)cc1)C(=O)OCc1ccccc1` [42406-77-9, L-Tyrosine benzyl ester]: the inhibition constant Ki on SlitOBP1 came to 4.47 µM. The IC50 on SlitOBP1 (setting [6]) was determined as 7.23 µM.
Regarding `O=C(O)C(F)(F)C(F)(F)C(F)(F)C(F)(F)C(F)(F)C(F)(F)C(F)(F)C(F)(F)Cl` [865-79-2, 9-Chlorohexadecafluorononanoic acid], on SlitOBP1, the IC50 stood at 6 µM; the inhibition constant (Ki) amounted to 3.73 µM; the “binding to SlitOBP1” value is recorded as “high affinities; also recorded: could effectively displace 1-NPN”.

(Values after publication PMC4278257 (International Journal of Biological Sciences, 2015).)
